Results: BigSolDB 2.1

OC/C=C/c1ccccc1
solubility (mole fraction)
Conditions | 253.15 K | 258.15 K | 263.15 K | 268.15 K | 273.15 K | 278.15 K | 283.15 K | 288.15 K | 293.15 K
in acetone | 0.28 | 0.322 | 0.363 | 0.414 | 0.47 | 0.526 | 0.579 | 0.625 | 0.674
in ethanol | 0.22 | 0.256 | 0.298 | 0.342 | 0.404 | 0.456 | 0.52 | 0.59 | 0.652
in ethyl acetate | 0.208 | 0.243 | 0.29 | 0.351 | 0.416 | 0.486 | 0.547 | 0.61 | 0.659
in isobutanol | 0.072 | 0.105 | 0.165 | 0.217 | 0.287 | 0.366 | 0.431 | 0.498 | 0.576
in isopropanol | 0.195 | 0.242 | 0.288 | 0.33 | 0.394 | 0.446 | 0.512 | 0.582 | 0.649
in methanol | 0.222 | 0.24 | 0.269 | 0.307 | 0.351 | 0.401 | 0.466 | 0.536 | 0.61
in methyl acetate | 0.172 | 0.225 | 0.27 | 0.326 | 0.392 | 0.452 | 0.523 | 0.591 | 0.646
in n-butanol | 0.125 | 0.162 | 0.214 | 0.269 | 0.342 | 0.412 | 0.479 | 0.553 | 0.608
in n-hexane | 0.00446 | 0.00664 | 0.0104 | 0.0143 | 0.0194 | 0.0248 | 0.0294 | 0.0352 | 0.0418
in n-propanol | 0.174 | 0.213 | 0.266 | 0.313 | 0.373 | 0.433 | 0.496 | 0.567 | 0.634
in sec-butanol | 0.089 | 0.142 | 0.191 | 0.255 | 0.321 | 0.395 | 0.459 | 0.53 | 0.592

O=C(O)c1ccccc1O
solubility (mole fraction)
Conditions | 298.15 K | 303.15 K | 308.15 K | 313.15 K | 318.15 K
in acetic acid | 0.0531 | 0.0617 | 0.0709 | 0.0785 | 0.0903
in acetone | 0.175 | 0.196 | 0.203 | 0.218 | 0.231
in ethyl acetate | 0.13 | 0.14 | 0.154 | 0.165 | 0.179
in methanol | 0.123 | 0.137 | 0.15 | 0.163 | 0.172
